# Source: patent US20150125509A1, “TREATMENT OF FISH POPULATIONS WITH LUFENURON” (priority 2012, published 2015)
# Tested on: L. salmonis
# Experiment: Example 2: in-feed treatment in fresh water hatchery, natural sea louse infestation after sea transfer, L. salmonis counts
# Type: in vivo, Lepeophtheirus salmonis on Atlantic salmon (Salmo salar)
# Conditions: for L. salmonis: all stages, Treated, counts / L. salmonis: pre- & adults, Efficacy / L. salmonis: pre- & adults, Treated, counts: fresh water
# Experimental: Three groups of 400 Atlantic salmon (Salmo salar) of average weight 80 g were treated with medicated pellets containing lufenuron to deliver doses equivalent to 1, 5 and 10 mg/kg/day over 7 consecutive days. A fourth group containing 400 salmon of average weight 80 g was added to the study as a non-treated control group. The medicated pellets were prepared by coating commercially available fish feed pellets with a lufenuron-containing pre-mix to reach a content of 0.005, 0.025 and 0.05% (w/w) lufenuron in the fish feed. The groups were randomized and the identity of the feeds blinded to the site staff. The treatment was undertaken in a fresh water hatchery and the fish transferred to sea water within 7 days of completion of treatment.
# On transfer to sea each group was split into two cages and all cage groups were maintained in separate randomized cages.
# After treatment, the fish were exposed to natural sea louse infestation. During the study the temperature varied between 1.9 and 8.1° C. Fish weights were assessed at allocation to cages, again approximately 2 weeks after the sea transfer and then at 4 weekly intervals. Sea louse numbers were assessed at approximately 2 weeks after the sea transfer and then at 4 weekly intervals. The numbers of chalimus, pre-adults and adult male, mobile and mature female L. salmonis were recorded for each fish. No distinction was made between chalimus stages I-IV or between pre-adult and adult male stages. Total numbers of Caligus elongatus were also recorded but no significant infestation was established to enable an assessment of efficacy.
# Efficacy was calculated using the formula:
# % Efficacy=100−(100×mean of treatment group/mean of control).
# [1] = 1 mg/kg/day 7 days in-feed, 15 days post sea transfer
# [2] = 1 mg/kg/day 7 days in-feed, 42 days post sea transfer
# [3] = 1 mg/kg/day 7 days in-feed, 76 days post sea transfer
# [4] = 1 mg/kg/day 7 days in-feed, 98 days post sea transfer
# [5] = 1 mg/kg/day 7 days in-feed, 125 days post sea transfer
# [6] = 1 mg/kg/day 7 days in-feed, 154 days post sea transfer
# [7] = 5 mg/kg/day 7 days in-feed, 15 days post sea transfer
# [8] = 5 mg/kg/day 7 days in-feed, 76 days post sea transfer
# [9] = 5 mg/kg/day 7 days in-feed, 98 days post sea transfer
# [10] = 5 mg/kg/day 7 days in-feed, 125 days post sea transfer
# [11] = 5 mg/kg/day 7 days in-feed, 154 days post sea transfer
# [12] = 10 mg/kg/day 7 days in-feed, 15 days post sea transfer
# [13] = 10 mg/kg/day 7 days in-feed, 76 days post sea transfer
# [14] = 10 mg/kg/day 7 days in-feed, 98 days post sea transfer
# [15] = 10 mg/kg/day 7 days in-feed, 125 days post sea transfer
# [16] = 10 mg/kg/day 7 days in-feed, 154 days post sea transfer
compound,measurement,setting,value
"O=C(NC(=O)c1c(F)cccc1F)Nc1cc(Cl)c(OC(F)(F)C(F)C(F)(F)F)cc1Cl (stereo not shown) [lufenuron, N-{[2,5-Dichlor-4-(1,1,2,3,3,3-hexafluorpropoxy)phenyl]carbamoyl}-2,6-difluorbenzamid]","L. salmonis: all stages, Treated, counts",[1],0
same,"L. salmonis: pre- & adults, Efficacy",[1],100%
same,"L. salmonis: pre- & adults, Treated, counts",[1],0
same,"L. salmonis: all stages, Treated, counts",[2],0
same,"L. salmonis: pre- & adults, Efficacy",[2],100%
same,"L. salmonis: pre- & adults, Treated, counts",[2],0
same,"L. salmonis: all stages, Treated, counts",[3],0.1
same,"L. salmonis: pre- & adults, Efficacy",[3],96.2%
same,"L. salmonis: pre- & adults, Treated, counts",[3],0.1
same,"L. salmonis: all stages, Treated, counts",[4],0.8
same,"L. salmonis: pre- & adults, Efficacy",[4],83.9%
same,"L. salmonis: pre- & adults, Treated, counts",[4],0.45
same,"L. salmonis: all stages, Treated, counts",[5],0.4
same,"L. salmonis: pre- & adults, Efficacy",[5],92.9%
same,"L. salmonis: pre- & adults, Treated, counts",[5],0.3
same,"L. salmonis: all stages, Treated, counts",[6],0.3
same,"L. salmonis: pre- & adults, Efficacy",[6],92.8%
same,"L. salmonis: pre- & adults, Treated, counts",[6],0.3
same,"L. salmonis: all stages, Treated, counts",[7],0.1
same,"L. salmonis: pre- & adults, Efficacy",[7],100%
same,"L. salmonis: pre- & adults, Treated, counts",[7],0
same,"L. salmonis: all stages, Treated, counts",[8],0
same,"L. salmonis: pre- & adults, Efficacy",[8],100%
same,"L. salmonis: pre- & adults, Treated, counts",[8],0
same,"L. salmonis: all stages, Treated, counts",[9],0.1
same,"L. salmonis: pre- & adults, Efficacy",[9],96.4%
same,"L. salmonis: pre- & adults, Treated, counts",[9],0.1
same,"L. salmonis: all stages, Treated, counts",[10],0
same,"L. salmonis: pre- & adults, Efficacy",[10],100%
same,"L. salmonis: pre- & adults, Treated, counts",[10],0
same,"L. salmonis: all stages, Treated, counts",[11],0
same,"L. salmonis: pre- & adults, Efficacy",[11],100%
same,"L. salmonis: pre- & adults, Treated, counts",[11],0
same,"L. salmonis: all stages, Treated, counts",[12],0.5
same,"L. salmonis: pre- & adults, Efficacy",[12],100%
same,"L. salmonis: pre- & adults, Treated, counts",[12],0
same,"L. salmonis: all stages, Treated, counts",[13],0
same,"L. salmonis: pre- & adults, Efficacy",[13],100%
same,"L. salmonis: pre- & adults, Treated, counts",[13],0
same,"L. salmonis: all stages, Treated, counts",[14],0
same,"L. salmonis: pre- & adults, Efficacy",[14],100%
same,"L. salmonis: pre- & adults, Treated, counts",[14],0
same,"L. salmonis: all stages, Treated, counts",[15],0
same,"L. salmonis: pre- & adults, Efficacy",[15],100%
same,"L. salmonis: pre- & adults, Treated, counts",[15],0
same,"L. salmonis: all stages, Treated, counts",[16],0
same,"L. salmonis: pre- & adults, Efficacy",[16],100%
same,"L. salmonis: pre- & adults, Treated, counts",[16],0
same,protected the fish against sea louse infestation until at least (time post-treatment),"Example 2, 1 mg/kg treatment",five
same,efficacy over the protection period,"Example 2, 1 mg/kg treatment, until at least five month post-treatment",approximately 90%
same,protected the fish against sea louse infestation until (time post-treatment),"Example 2, 5 mg/kg treatment, study continues",5 months
same,protected the fish against sea louse infestation up to (time post-treatment),"Example 2, 10 mg/kg treatment, study continues",5 months
